Assays:
[1] = target: T1, Alpha-1B adrenergic receptor (Rattus norvegicus, UniProt P15823); test: DRUGMATRIX: Alpha-1B adrenergic receptor radioligand binding (ligand: prazosin); assay type: cell membranes, Wistar, Liver, Membrane; conditions: Not Active = under 50% inhibition at 10 µM
T1 sequence (P15823 whole entry): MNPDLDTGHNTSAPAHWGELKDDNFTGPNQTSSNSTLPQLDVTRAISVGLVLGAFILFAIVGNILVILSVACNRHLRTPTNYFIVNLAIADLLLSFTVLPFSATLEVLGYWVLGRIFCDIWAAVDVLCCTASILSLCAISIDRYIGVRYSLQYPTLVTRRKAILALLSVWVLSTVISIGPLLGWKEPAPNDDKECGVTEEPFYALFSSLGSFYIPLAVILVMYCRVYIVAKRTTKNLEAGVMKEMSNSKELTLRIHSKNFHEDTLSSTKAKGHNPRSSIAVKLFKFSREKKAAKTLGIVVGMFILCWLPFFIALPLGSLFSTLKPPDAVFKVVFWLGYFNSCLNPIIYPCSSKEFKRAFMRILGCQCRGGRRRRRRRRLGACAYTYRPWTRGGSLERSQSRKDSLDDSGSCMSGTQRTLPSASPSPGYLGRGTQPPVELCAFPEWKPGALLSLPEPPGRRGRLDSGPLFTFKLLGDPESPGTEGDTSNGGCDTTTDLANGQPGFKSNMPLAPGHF

[2] = target: T2, Polyunsaturated fatty acid lipoxygenase ALOX15 (Oryctolagus cuniculus, UniProt P12530); test: biochemical; assay type: tissue-based, Reticulocytes;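 also: inhibition of 15-lipoxygenase enzyme activity measured with linoleic acid as the substrate; in other assays of this panel Not Active means under 50% inhibition at 10 µM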
T2 sequence (P12530 whole entry): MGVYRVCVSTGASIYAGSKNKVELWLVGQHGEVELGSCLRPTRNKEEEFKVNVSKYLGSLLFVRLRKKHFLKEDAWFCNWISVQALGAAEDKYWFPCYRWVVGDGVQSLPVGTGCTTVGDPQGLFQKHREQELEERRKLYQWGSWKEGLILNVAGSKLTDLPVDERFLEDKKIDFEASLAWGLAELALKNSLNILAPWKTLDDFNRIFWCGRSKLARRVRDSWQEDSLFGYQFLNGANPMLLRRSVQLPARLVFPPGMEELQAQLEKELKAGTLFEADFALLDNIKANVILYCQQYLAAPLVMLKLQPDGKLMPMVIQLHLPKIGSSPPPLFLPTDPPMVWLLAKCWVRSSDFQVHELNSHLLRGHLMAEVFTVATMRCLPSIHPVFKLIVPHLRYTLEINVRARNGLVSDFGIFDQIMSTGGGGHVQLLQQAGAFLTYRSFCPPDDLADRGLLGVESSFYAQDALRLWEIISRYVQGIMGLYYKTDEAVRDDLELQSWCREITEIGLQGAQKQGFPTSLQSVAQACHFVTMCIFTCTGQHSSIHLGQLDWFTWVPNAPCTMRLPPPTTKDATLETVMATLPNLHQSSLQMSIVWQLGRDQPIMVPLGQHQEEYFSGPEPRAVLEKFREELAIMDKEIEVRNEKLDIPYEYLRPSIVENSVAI

[3] = target: T3, Neuropeptide Y receptor type 1 (Homo sapiens, UniProt P25929); assay type: cell membranes, Membrane; conditions: sk-n-mc; also: in other assays of this panel Not Active means under 50% inhibition at 10 µM
T3 sequence (P25929 whole entry): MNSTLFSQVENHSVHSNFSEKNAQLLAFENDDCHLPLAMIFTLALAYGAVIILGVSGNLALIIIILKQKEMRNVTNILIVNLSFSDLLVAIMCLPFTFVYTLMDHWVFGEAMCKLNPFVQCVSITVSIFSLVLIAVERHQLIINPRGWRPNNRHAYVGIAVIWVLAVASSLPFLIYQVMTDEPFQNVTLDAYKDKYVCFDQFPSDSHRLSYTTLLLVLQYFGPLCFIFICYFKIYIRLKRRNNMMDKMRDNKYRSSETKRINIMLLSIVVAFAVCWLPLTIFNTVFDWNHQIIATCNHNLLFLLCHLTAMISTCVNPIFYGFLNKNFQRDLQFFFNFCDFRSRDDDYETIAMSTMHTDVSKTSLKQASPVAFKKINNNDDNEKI

[4] = DRUGMATRIX: Phosphodiesterase PDE4 enzyme inhibition (substrate: [3H]cAMP + cAMP); conditions: u-937; Not Active = under 50% inhibition at 10 µM
Caspase-1 = target: T4, Caspase-1 (Homo sapiens, UniProt P29466); set-up: species or system Escherichia coli;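 also: Caspase-1 enzyme inhibition assay with a peptide substrate; in other assays of this panel Not Active means under 50% inhibition at 10 µM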
T4 sequence (P29466 whole entry): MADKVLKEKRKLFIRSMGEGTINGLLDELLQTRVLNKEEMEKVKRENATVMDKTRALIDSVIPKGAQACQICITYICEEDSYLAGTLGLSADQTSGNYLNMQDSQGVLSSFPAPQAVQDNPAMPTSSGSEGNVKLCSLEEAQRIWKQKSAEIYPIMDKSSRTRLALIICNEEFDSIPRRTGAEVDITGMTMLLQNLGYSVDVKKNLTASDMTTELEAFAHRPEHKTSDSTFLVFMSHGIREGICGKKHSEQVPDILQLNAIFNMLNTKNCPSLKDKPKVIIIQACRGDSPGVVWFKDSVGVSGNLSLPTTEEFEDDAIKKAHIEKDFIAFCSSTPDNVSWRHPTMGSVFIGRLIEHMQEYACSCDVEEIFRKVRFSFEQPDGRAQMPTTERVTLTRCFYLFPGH

[5] = target: Protein kinase C alpha type (Homo sapiens, UniProt P17252); assay type: cell-based; conditions: sf9;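 also: inhibition of PKCalpha kinase activity measured in an enzyme assay with histone as the phosphorylation substrate; in other assays of this panel Not Active means under 50% inhibition at 10 µM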
Adenosine receptor A2a = Adenosine receptor A2a (Homo sapiens, UniProt P29274); test: DRUGMATRIX: Adenosine A2A radioligand binding (ligand: […]); assay type: cell membranes, HEK293, Membrane; conditions: hek293; Not Active = under 50% inhibition at 10 µM
Chain of Adenosine receptor A2a (P29274 whole entry): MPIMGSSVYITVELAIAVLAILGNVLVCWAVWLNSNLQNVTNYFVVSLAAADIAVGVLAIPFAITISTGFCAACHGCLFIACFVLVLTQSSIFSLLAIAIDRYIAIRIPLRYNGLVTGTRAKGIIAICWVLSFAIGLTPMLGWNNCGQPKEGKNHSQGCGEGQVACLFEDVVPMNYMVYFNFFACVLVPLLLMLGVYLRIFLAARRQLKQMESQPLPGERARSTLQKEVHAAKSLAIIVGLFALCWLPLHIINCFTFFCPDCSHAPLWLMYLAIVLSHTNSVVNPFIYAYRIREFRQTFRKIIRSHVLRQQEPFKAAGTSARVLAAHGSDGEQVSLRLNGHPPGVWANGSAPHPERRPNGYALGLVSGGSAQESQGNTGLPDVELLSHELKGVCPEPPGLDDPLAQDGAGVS

Compound | IC50 [1] | IC50 ([2]; reticulocytes) | IC50 [3] | IC50 [4] | Ki [4] | IC50 (Caspase-1) | IC50 [5] | IC50 (Adenosine receptor A2a) | IC50 ([2]; read-out: IC50) [µM] | Ki [1] | Ki ([2]; reticulocytes) | Ki [3] | Ki (Caspase-1) | Ki [5] | Ki (Adenosine receptor A2a)
CC(=O)O[C@H]1C(=O)[C@@]2(C)[C@H]([C@H](OC(=O)c3ccccc3)[C@]3(O)C[C@H](OC(=O)[C@H](O)[C@@H](NC(=O)c4ccccc4)c4ccccc4)C(C)=C1C3(C)C)[C@]1(OC(C)=O)CO[C@@H]1C[C@@H]2O [PACLITAXEL] | Not Active | Not Active | Not Active | Not Active | Not Active | Not Active | Not Active | Not Active |  |  |  |  |  |  | 
C[n+]1ccc(-c2cc[n+](C)cc2)cc1.[Cl-].[Cl-] [PARAQUAT DICHLORIDE] | Not Active | Not Active | Not Active | Not Active | Not Active | Not Active | Not Active | Not Active |  |  |  |  |  |  | 
CC(C)NCC(O)COc1cccc2[nH]ccc12 (stereo unspecified) [PINDOLOL] | Not Active | Not Active | Not Active | Not Active | Not Active | Not Active | Not Active | Not Active |  |  |  |  |  |  | 
CCn1cc(C(=O)O)c(=O)c2cnc(N3CCCC3)nc21 [PIROMIDIC ACID] | Not Active | Not Active | Not Active | Not Active | Not Active | Not Active | Not Active | Not Active |  |  |  |  |  |  | 
C[n+]1ccccc1/C=N/O.[Cl-] [PRALIDOXIME CHLORIDE] | Not Active | Not Active | Not Active | Not Active | Not Active | Not Active | Not Active | Not Active |  |  |  |  |  |  | 
C[C@]12C=CC(=O)C=C1CC[C@@H]1[C@@H]2[C@@H](O)C[C@@]2(C)[C@H]1CC[C@]2(O)C(=O)CO [PREDNISOLONE] | Not Active | Not Active | Not Active | Not Active | Not Active | Not Active | Not Active | Not Active |  |  |  |  |  |  | 
CC(=O)[C@H]1[C@H](C#N)C[C@H]2[C@@H]3CC=C4C[C@@H](O)CC[C@]4(C)[C@H]3CC[C@@]21C [PREGNENOLONE CARBONITRILE] | Not Active | Not Active | Not Active | Not Active | Not Active | Not Active | Not Active | Not Active |  |  |  |  |  |  | 
CCCN(CCC)S(=O)(=O)c1ccc(C(=O)O)cc1 [PROBENECID] | Not Active | Not Active | Not Active | Not Active | Not Active | Not Active | Not Active | Not Active |  |  |  |  |  |  | 
CCCOc1ccc(C(=O)OCCN(CC)CC)cc1N [PROPARACAINE] | Not Active | Not Active | Not Active | Not Active | Not Active | Not Active | Not Active | Not Active |  |  |  |  |  |  | 
CC(C)c1cccc(C(C)C)c1O [PROPOFOL] | Not Active |  | Not Active | Not Active | Not Active | Not Active | Not Active | Not Active | 7.6 |  |  |  |  |  | 
C[C@@H]1O[C@@H](O[C@@H]2C=C3CC[C@@H]4[C@H](CC[C@]5(C)[C@@H](c6ccc(=O)oc6)CC[C@]45O)[C@@]3(C)CC2)[C@H](O)[C@H](O)[C@H]1O [PROSCILLARIDIN] | Not Active | Not Active | Not Active | Not Active | Not Active | Not Active | Not Active | Not Active |  |  |  |  |  |  | 
Oc1cccc(O)c1O [PYROGALLOL] | Not Active |  | Not Active | Not Active | Not Active | Not Active | Not Active | Not Active | 2.11 |  |  |  |  |  | 
AURANOFIN | Not Active | Not Active | Not Active | Not Active | Not Active | Not Active | Not Active | Not Active |  | Not Active | Not Active | Not Active | Not Active | Not Active | Not Active
GADOPENTETATE DIMEGLUMINE | Not Active | Not Active | Not Active | Not Active | Not Active | Not Active | Not Active | Not Active |  | Not Active | Not Active | Not Active | Not Active | Not Active | Not Active
GENTAMICIN | Not Active | Not Active | Not Active | Not Active | Not Active | Not Active | Not Active | Not Active |  | Not Active | Not Active | Not Active | Not Active | Not Active | Not Active
GRAMICIDIN | Not Active | Not Active | Not Active | Not Active | Not Active | Not Active | Not Active | Not Active |  | Not Active | Not Active | Not Active | Not Active | Not Active | Not Active
NYSTATIN | Not Active | Not Active | Not Active | Not Active | Not Active | Not Active | Not Active | Not Active |  | Not Active | Not Active | Not Active | Not Active | Not Active | Not Active

— ChEMBL document CHEMBL1909046, “DrugMatrix in vitro pharmacology data”
